Data: ChEMBL document CHEMBL6177983, “PSMA-Guided PROTAC Degraders for Tumor-Specific Protein Degradation in Prostate Cancer” (J Med Chem, 2025)
Active and inactive are the calls of the source.

What was measured:
[1] = target: T1, von Hippel-Lindau disease tumor suppressor/Bromodomain-containing protein 4 (Homo sapiens) (UniProt O60885+P40337); experiment: PROTAC activity at BRD4/VHL in human 22Rv1 cells expressing PSMA assessed as induction of BRD4 degradation incubated for 24 hrs by Western blotting analysis; assay type: cell-based; details: dose <= 100.0 nM
T1 sequence (P40337 whole entry, looked up, other chains not shown): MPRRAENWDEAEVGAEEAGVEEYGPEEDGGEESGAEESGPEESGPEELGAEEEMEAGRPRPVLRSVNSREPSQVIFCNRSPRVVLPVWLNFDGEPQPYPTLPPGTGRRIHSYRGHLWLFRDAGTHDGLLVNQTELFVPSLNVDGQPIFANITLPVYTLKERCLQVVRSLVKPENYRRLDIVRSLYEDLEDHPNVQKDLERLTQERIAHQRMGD

[2] = target: T1, von Hippel-Lindau disease tumor suppressor/Bromodomain-containing protein 4 (Homo sapiens); experiment: PROTAC activity at BRD4/VHL PSMA knockdown in human LNCaP cells assessed as induction of BRD4 degradation at 3 nM incubated for 12 hrs by Western blotting analysis; assay type: cell-based
J82 = experiment: Cytotoxicity against human J82 cells assessed as cell viability incubated for 72 hrs by CCK-8 assay; assay type: functional, cell-based
[3] = Toxicity in male BALB/c mouse assessed as effect on kidney weight at 0.47 mmol/L, iv administered every day for 21 days; assay type: organism-based; details: in vivo, 504 h, time 21 day
[4] = target: T1, von Hippel-Lindau disease tumor suppressor/Bromodomain-containing protein 4 (Homo sapiens); experiment: PROTAC activity at BRD4/VHL in human LNCaP cells assessed as induction of BRD4 degradation at 10 nM incubated for 8 hrs in presence of VH032 by Western blotting analysis; assay type: cell-based
[5] = Toxicity in male BALB/c mouse assessed as effect on heart weight at 0.47 mmol/L, iv administered every day for 21 days; assay type: organism-based; details: in vivo, 504 h, time 21 day
[6] = Toxicity in male BALB/c mouse assessed as effect on tumor weight at 0.47 mmol/L, iv administered every day for 21 days; assay type: organism-based; details: in vivo, 504 h, time 21 day
[7] = Toxicity in male BALB/c mouse assessed as effect on spleen weight at 0.47 mmol/L, iv administered every day for 21 days; assay type: organism-based; details: in vivo, 504 h, time 21 day
[8] = target: T1, von Hippel-Lindau disease tumor suppressor/Bromodomain-containing protein 4 (Homo sapiens); experiment: PROTAC activity at BRD4/VHL in HEK293 cells assessed as induction of BRD4 degradation up to 100 nM incubated for 24 hrs by Western blotting analysis; assay type: cell-based
[9] = Drug concentration in male BALB/c mouse Tumor at 0.14 mmol/L, iv; assay type: ADME, tissue-based, Neoplasm; details: in vivo
[10] = target: T1, von Hippel-Lindau disease tumor suppressor/Bromodomain-containing protein 4 (Homo sapiens); experiment: PROTAC activity at BRD4/VHL in human LNCaP cells assessed as induction of BRD4 degradation at 10 nM incubated for 8 hrs in presence of MLN4924 by Western blotting analysis; assay type: cell-based
[11] = target: T1, von Hippel-Lindau disease tumor suppressor/Bromodomain-containing protein 4 (Homo sapiens); experiment: PROTAC activity at BRD4/VHL in human LNCaP cells expressing PSMA assessed as induction of BRD4 degradation incubated for 24 hrs by Western blotting analysis; assay type: cell-based; details: dose <= 100.0 nM
[12] = target: T1, von Hippel-Lindau disease tumor suppressor/Bromodomain-containing protein 4 (Homo sapiens); experiment: PROTAC activity at BRD4/VHL in human LNCaP cells assessed as induction of BRD4 degradation at 3 nM incubated for 24 hrs in presence of filipin by Western blotting analysis; assay type: cell-based
[13] = Half life in BALB/c mouse at 0.14 mmol/L, iv; assay type: ADME; details: in vivo
[14] = target: T1, von Hippel-Lindau disease tumor suppressor/Bromodomain-containing protein 4 (Homo sapiens); experiment: PROTAC activity at BRD4/VHL in human DU-145 cells assessed as induction of BRD4 degradation up to 100 nM incubated for 24 hrs by Western blotting analysis; assay type: cell-based
HEK-293T = experiment: Cytotoxicity against HEK293T cells assessed as cell viability incubated for 72 hrs by CCK-8 assay; assay type: toxicity, cell-based; details: human
[15] = target: T1, von Hippel-Lindau disease tumor suppressor/Bromodomain-containing protein 4 (Homo sapiens); experiment: PROTAC activity at BRD4/VHL in human J82 cells assessed as induction of BRD4 degradation up to 100 nM incubated for 24 hrs by Western blotting analysis; assay type: cell-based
LNCaP = experiment: Antitumor activity against human LNCaP cells xenografted in BALB/c mouse assessed as tumor growth inhibition at 0.47 mmol/L, iv administered every day for 21 days; assay type: functional; details: 504 h, time 21 day, read-out: TGI
[16] = target: T1, von Hippel-Lindau disease tumor suppressor/Bromodomain-containing protein 4 (Homo sapiens); experiment: PROTAC activity at BRD4/VHL in human LNCaP cells assessed as induction of BRD4 degradation at 10 nM incubated for 8 hrs in presence of MG132 by Western blotting analysis; assay type: cell-based
DU-145 = experiment: Cytotoxicity against human DU-145 cells assessed as cell viability incubated for 72 hrs by CCK-8 assay; assay type: functional, cell-based
[17] = Drug concentration in male BALB/c mouse plasma at 0.14 mmol/L, iv; assay type: ADME, cell-free
[18] = target: T1, von Hippel-Lindau disease tumor suppressor/Bromodomain-containing protein 4 (Homo sapiens); experiment: PROTAC activity at BRD4/VHL in human VCaP cells expressing PSMA assessed as induction of BRD4 degradation incubated for 24 hrs by Western blotting analysis; assay type: cell-based; details: dose <= 100.0 nM
[19] = Toxicity in male BALB/c mouse assessed as effect on lung weight at 0.47 mmol/L, iv administered every day for 21 days; assay type: organism-based; details: in vivo, 504 h, time 21 day
[20] = Toxicity in male BALB/c mouse assessed as body weight loss at 0.47 mmol/L, iv administered every day for 21 days; assay type: organism-based; details: in vivo, 504 h, time 21 day
[21] = Toxicity in male BALB/c mouse assessed as effect on liver weight at 0.47 mmol/L, iv administered every day for 21 days; assay type: organism-based; details: in vivo, 504 h, time 21 day

Cc1ncsc1-c1ccc([C@H](C)NC(=O)[C@@H]2C[C@@H](OC(=O)CCCc3cn(CCCNC(=O)[C@H](Cc4ccc(O)cc4)NC(=O)[C@H](Cc4ccccc4)NC(=O)CCC(=O)NCCCCCC(=O)N(CCCC[C@H](NC(=O)N[C@@H](CCC(=O)O)C(=O)O)C(=O)O)Cc4cccc(Cl)c4)nn3)CN2C(=O)[C@@H](NC(=O)COCCCOCCNC(=O)C[C@@H]2N=C(c3ccc(Cl)cc3)c3c(sc(C)c3C)-n3c(C)nnc32)C(C)(C)C)cc1
4.19 h: half-life [13]
active: Activity [1] Dose-dependent-effect | Activity [2] | Activity [4] | Activity [10] | Activity [11] Dose-dependent-effect | Activity [12] | Activity [16] | Activity [18] Dose-dependent-effect
Non-toxic: Activity [3] | Activity [5] | Activity [6] | Activity [7] | Activity (HEK-293T) | Activity [19] | Activity [20] | Activity [21]
88.6%: inhibition in vivo at 470 µM (LNCaP)
Active: Drug uptake [9] | Cp [17]
inactive: Activity (J82) | Activity [8] | Activity [14] | Activity [15] | Activity (DU-145)
